For assay [1], the system named is neuropathic pain (cold allodynia). As to the kind of experiment: Bennett model: neuropathic pain (chronic constriction injury, cold allodynia). Type of assay: in vivo, mouse or rat. Conditions: i.v. administration, dose 10 mg/kg. How it is done: Bennett Model: Neuropathic Pain in the Mouse and in the Rat The study of activity in neuropathic pain was carried out in the Bennett model (chronic constriction injury; Bennett and Xie, 1988, Pain 33: 87-107). Sprague-Dawley rats weighing 140-160 g are provided, under Narcoren narcosis, with four loose ligations of the right nervus ischiaticus. NMRI mice weighing 16-18 g are provided, under Ketavet-Rompun narcosis, with three loose ligations of the right nervus ischiaticus. The animals develop hypersensitivity of the paw innervated by the damaged nerve, and after a one-week recovery phase, the hypersensitivity is quantified over a period of about four weeks by means of a 4° C. cold metal plate (cold allodynia). The animals are observed on the plate for a period of 2 min and the number of reactions of pulling away the damaged paw is measured. […] The size of the group is n=10, the significance of an anti-allodynic action (*=p<0.05) is determined by means of a variance analysis with repeated measurement and a post hoc analysis according to Bonferroni.

The next assay addresses hKCNQ2/3 (Homo sapiens, UniProt O43525+O43526). Put plainly: Fluorescence assay using a voltage sensitive dye (BMG). It counts as cell-based. Conditions: agonistic activity at 10 μM, CHO-K1 cells expressing KCNQ2/3; read-out: BMG AG %@10 μm. The protocol:
11. Biological Data 12. Fluorescence Assay Using a Voltage Sensitive Dye
Human CHO-K1 cells expressing KCNQ2/3 channels are cultivated adherently at 37° C., 5% CO2 and 95% humidity in cell culture bottles (e.g. 80 cm^2 TC flasks, Nunc) with MEM Alpha Medium (1×, liquid, Invitrogen, #22571), 10% fetal calf serum (FCS) (Invitrogen, #10270-106, heat-inactivated) and the necessary selection antibiotics.
Before being sown out for the measurements, the cells are washed with a 1×DPBS buffer without Ca^2+/Mg^2+ (e.g. Invitrogen, #14190-094) and detached from the bottom of the culture vessel by means of Accutase (PAA Laboratories, #L11-007) (incubation with Accutase for 15 min at 37° C.). The cell count then present is determined using a CASY™ cell counter (TCC model, Schärfe System) in order subsequently to apply 20,000 cells/well/100 μl of the described nutrient medium to 96-well measuring plates of the Corning™ CellBIND™ type (Flat Clear Bottom Black Polystyrene Microplates, #3340). Incubation is then carried out for one hour at room temperature, without gassing or adjusting the humidity, followed by incubation for 24 hours at 37° C., 5% CO2 and 95% humidity.
The voltage-sensitive fluorescent dye from the Membrane Potential Assay Kit (Red™ Bulk format part R8123 for FLIPR, Molecular Devices™) is prepared by dissolving the contents of a vessel Membrane Potential Assay Kit Red Component A in 200 ml of extracellular buffer (ES buffer, 120 mM NaCl, 1 mM KCl, 10 mM HEPES, 2 mM CaCl2, 2 mM MgCl2, 10 mM glucose; pH 7.4). After removal of the nutrient medium, the cells are washed with 200 μl of ES buffer, then covered with a layer of 100 μl of the dye solution prepared above and incubated for 45 min at room temperature with the exclusion of light.
The fluorescence measurements are carried out with a BMG Labtech FLUOstar™ or BMG Labtech POLARstar™ instrument (525 nm excitation, 560 nm emission, Bottom Read mode). After incubation of the dye, […] of the test substances in the desired concentrations, or 50 μl of ES buffer for control purposes, are introduced into separate cavities of the measuring plate and incubated for 30 min at room temperature while being shielded from light. The fluorescence intensity of the dye is then measured for 5 min and the fluorescence value F1 of each well is thus determined at a given, constant time. 15 μl of a […] KCl solution ([…]) are then added to each well. The change in fluorescence is subsequently measured until all the relevant measured values have been obtained (mainly 5-30 min). At a given time after KCl application, a fluorescence value F2 is determined, in this case at the time of the fluorescence peak.
For calculation, the fluorescence intensity F2 is compared with the fluorescence intensity F1, and the agonistic activity of the target compound on the potassium channel is determined therefrom. F2 and F1 are calculated as follows:
[formula] In order to determine whether a substance has an agonistic effect,
[formula] for example, can be compared with
[formula] determined by adding to the reaction batch only the buffer solution instead of the substance to be tested, determining the value F1K of the fluorescence intensity, adding the potassium ions as described above and measuring a value F2K of the fluorescence intensity. Then F2K and F1K are calculated as follows: […]
A substance has an agonistic activity on the potassium channel when
[formula] is greater than
[formula] Independently of the comparison of
[formula] it is also possible to conclude that a target compound has agonistic activity if an increase in
[formula] is to be observed as the dosage of the target compound increases. Calculations of EC50 and IC50 values are carried out with the aid of “Prism 4” software (GraphPad Software™). The following compounds were tested by way of example: […]

For assay [2], the system named is mononeuropathic pain (mechanical allodynia). Put plainly: Chung model: mononeuropathic pain after spinal nerve ligation (mechanical allodynia). Type of assay: in vivo, Sprague-Dawley rats. Conditions: Rattus norvegicus, iv; i.v. administration. The protocol: Chung Model: Mononeuropathic Pain after Spinal Nerve Ligation
Animals: Male Sprague-Dawley rats (140-160 g) from a commercial breeder (Janvier, Genest St. Isle, France) were kept under a 12:12 h light-dark rhythm. The animals received food and tap water ad libitum. A period of one week was observed between delivery of the animals and the operation. After the operation, the animals were tested several times over a period of 4-5 weeks, a washing-out time of at least one week being observed. Description of the model: Under pentobarbital narcosis (Narcoren®, 60 mg/kg i.p., Merial GmbH, Hallbergmoos, Germany), the left L5, L6 spinal nerves were exposed by removing a section of the paravertebral muscle and a section of the left spinous process of the L5 lumbar vertebral body. […] The pull-back threshold was measured on the ipsi- and/or contra-lateral rear paw by means of an electronic from Frey Filamentes (Somedic A B, Malmö, Sweden). […] The data were determined as % maximum possible effect (% MPE) from the preliminary tests on the individual animals (=0 MPE) and the test values of an independent sham control group (=100% MPE). […] The data were analyzed by variance analysis with repeated measurements and a post hoc analysis according to Bonferroni. […]

For `O=C(CCC(=O)N1CCn2cccc2C1c1ccccc1)NCc1cccc(C(F)(F)F)c1` (stereo not drawn) [Example 2, 4-oxo-4-(1-phenyl-3,4-dihydro-1H-pyrrolo[1,2-a]pyrazin-2-yl)-N-(3-trifluoromethyl-benzyl)-butyramide], the “% MPE in the Bennett model” value in assay [1] was found to be 40 % MPE. Besides, the activation at 10 µM at hKCNQ2/3 was 84%. In assay [2], this molecule displayed an ED50 of 2.8 mg/kg.

Usually ED50 stands for the dose at which the effect has come halfway, by size or by number of responders. A higher ED50 goes with a need for a large dose.

The values above are taken from patent US8017772B2, “Substituted tetrahydropyrrolopyrazine compounds and the use thereof in the treatment and/or inhibition of pain” (Gruenenthal GmbH, priority 2006, dated 2011).
